Results published in ChEMBL document CHEMBL5154679, “A target and efficient synthetic strategy for structural and bioactivity optimization of a fungal natural product” (Eur J Med Chem, 2022).
≈ marks a conversion by molar mass, not a printed value. Calls of active or inactive are those of the source. The calls are words filed in the database; no cut-off is given here.

What was measured:
HeLa [1] = test: Antiproliferative activity against human HeLa cells assessed as reduction in cell viability incubated for 48 hrs by SRB assay; type: functional, cell-based
MGC-803 = test: Antiproliferative activity against human MGC-803 cells assessed as reduction in cell viability incubated for 48 hrs by SRB assay; type: functional, cell-based; settings: MGC-803, 48 h
[2] = Cytotoxicity against human L02 cells assessed as reduction in cell viability incubated for 48 hrs by SRB assay; type: toxicity, cell-based
MDA-MB-231 [3] = test: Antiproliferative activity against human MDA-MB-231 cells assessed as reduction in cell viability incubated for 48 hrs by SRB assay; type: functional, cell-based; settings: MDA-MB-231, 48 h
HepG2 = test: Antiproliferative activity against human HepG2 cells assessed as reduction in cell viability incubated for 48 hrs by SRB assay; type: functional, cell-based; settings: HepG2, 48 h
HCT-116 [4] = test: Antiproliferative activity against human HCT-116 cells assessed as reduction in cell viability incubated for 48 hrs by SRB assay; type: functional, cell-based; settings: HCT-116, 48 h
[5] = Cytotoxicity against human HUVEC cells assessed as reduction in cell viability incubated for 48 hrs by SRB assay; type: toxicity, cell-based
MCF7 [6] = test: Antiproliferative activity against human MCF7 cells assessed as reduction in cell viability incubated for 48 hrs by SRB assay; type: functional, cell-based; settings: MCF7, 48 h
MDA-MB-231 [7] = test: Anti-adhesion activity against human MDA-MB-231 cells assessed as inhibition of cell adhesion measured after 6 hrs by microscopic analysis; type: functional, cell-based
[8] = Tmax in Sprague-Dawley rat at 1 mg/kg, iv by LC-MS/MS analysis; type: ADME, organism-based; settings: in vivo
MDA-MB-231 [9] = test: Anti-metastasis activity against human MDA-MB-231 cells assessed as inhibition of cell migration at 2 ug/ml measured after 24 hrs by scratch wound healing assay; type: functional, cell-based; settings: dose 2.0 µg/ml
[10] = AUC (0 to infinity) in Sprague-Dawley rat at 1 mg/kg, iv by LC-MS/MS analysis; type: ADME, organism-based; design: time infinity, dose 1 mg/kg, route iv; settings: in vivo
[11] = MRT (0 to t) in Sprague-Dawley rat at 1 mg/kg, iv by LC-MS/MS analysis; type: ADME, organism-based; settings: in vivo
MCF7 [12] = test: Inhibition of colony formation in human MCF7 cells at 2 ug/ml measured after 48 hrs by crystal violet staining based analysis; type: functional, cell-based; settings: dose 2.0 µg/ml
HCT-116 [13] = test: Inhibition of colony formation in human HCT-116 cells at 2 ug/ml measured after 48 hrs by crystal violet staining based analysis; type: functional, cell-based; settings: dose 2.0 µg/ml
[14] = MRT (0 to infinity) in Sprague-Dawley rat at 1 mg/kg, iv by LC-MS/MS analysis; type: ADME, organism-based; settings: in vivo
MDA-MB-231 [15] = test: Anti-invasive activity against human MDA-MB-231 cells assessed as inhibition of cell invasion at 2 ug/ml measured after 24 hrs by transwell assay; type: functional, cell-based; settings: dose 2.0 µg/ml
[16] = Volume of distribution in Sprague-Dawley rat at 1 mg/kg, iv by LC-MS/MS analysis; type: ADME, organism-based; settings: in vivo
HeLa [17] = test: Inhibition of colony formation in human HeLa cells at 2 ug/ml measured after 48 hrs by crystal violet staining based analysis; type: functional, cell-based; settings: dose 2.0 µg/ml
[18] = Cmax in Sprague-Dawley rat at 1 mg/kg, iv by LC-MS/MS analysis; type: ADME, organism-based; design: dose 1 mg/kg, route iv; settings: in vivo
[19] = Clearance in Sprague-Dawley rat at 1 mg/kg, iv by LC-MS/MS analysis; type: ADME, organism-based; settings: in vivo
[20] = Half life in Sprague-Dawley rat at 1 mg/kg, iv by LC-MS/MS analysis; type: ADME, organism-based; settings: in vivo
[21] = AUC (0 to t) in Sprague-Dawley rat at 1 mg/kg, iv by LC-MS/MS analysis; type: ADME, organism-based; design: dose 1 mg/kg, route iv; settings: in vivo

## COc1cc(=O)oc(/C=C/C=C/C=C/[C@@]2(C)C[C@]3(C)O[C@H](C)[C@](C)(O2)[C@H]3C(=O)c2ccccc2)c1C
HeLa [1]
  IC50: 0.85 µg/mL (≈ 1.73 µM)
MGC-803
  IC50: 3.97 µg/mL (≈ 8.09 µM)
[2]
  IC50 at 48 h: 30.1 µg/mL (≈ 61.4 µM)
MDA-MB-231 [3]
  IC50: 4.38 µg/mL (≈ 8.93 µM)
HepG2
  IC50: 3.96 µg/mL (≈ 8.07 µM)
HCT-116 [4]
  IC50: 1.52 µg/mL (≈ 3.1 µM)
[5]
  IC50 at 48 h: > 50 µg/mL
MCF7 [6]
  IC50: 0.92 µg/mL (≈ 1.88 µM)

## COc1cc(=O)oc(/C=C/C=C/C=C/[C@]2(C)O[C@]3(C)[C@@H](C(=O)c4cccnc4)[C@@](C)(O[C@@H]3C)[C@H]2C(=O)c2cccnc2)c1C
HCT-116 [4]
  IC50: 12.5 µg/mL (≈ 21 µM)

## CCC[C@@H]1[C@@]2(C)O[C@@](C)(/C=C/C=C/C=C/c3oc(=O)cc(OC)c3C)C[C@]1(C)O[C@@H]2C
HCT-116 [4]
  IC50: 5.9 µg/mL (≈ 13.8 µM)

## COc1cc(=O)oc(/C=C/C=C/C=C/[C@@]2(C)C[C@]3(C)O[C@H](C)[C@](C)(O2)[C@H]3C(=O)c2ccc(Cl)cc2)c1C
MDA-MB-231 [7]
  Activity: Active
[8]
  Tmax: 7.2 min
MDA-MB-231 [9]
  Activity: Active
[10]
  AUC(0-inf): 8640 ng·h/mL
HeLa [1]
  IC50: 1.35 µg/mL (≈ 2.57 µM)
MGC-803
  IC50: 1.54 µg/mL (≈ 2.93 µM)
[11]
  MRT last: 313 min
[2]
  IC50 at 48 h: > 50 µg/mL
MCF7 [12]
  inhibition: Active
HCT-116 [13]
  inhibition: Active
MDA-MB-231 [3]
  IC50: 4.04 µg/mL (≈ 7.69 µM)
[14]
  MRT inf: 521 min
MDA-MB-231 [15]
  Activity: Active
HepG2
  IC50: 1.96 µg/mL (≈ 3.73 µM)
HCT-116 [4]
  IC50: 1.23 µg/mL (≈ 2.34 µM)
[16]
  Vd: 1.42 L/kg
HeLa [17]
  inhibition: Active
[5]
  IC50 at 48 h: > 50 µg/mL
[18]
  Cmax: 3040 ng/mL
[19]
  clearance: 2 mL/min/kg
[20]
  half-life: 503 min
MCF7 [6]
  IC50: 0.68 µg/mL (≈ 1.3 µM)
[21]
  AUC(0-t): 7710 ng·h/mL

## COc1cc(=O)oc(/C=C/C=C/C=C/C(C)=C/C2(C)O[C@H](C)[C@](C)(O)[C@H]2O)c1C (some centres not stated)
HCT-116 [4]
  IC50: 19.8 µg/mL (≈ 49.1 µM)

## COc1cc(=O)oc(/C=C/C=C/C=C/[C@@]2(C)C[C@]3(C)O[C@H](C)[C@](C)(O2)[C@H]3C(=O)Cc2ccc(Cl)cc2)c1C
HCT-116 [4]
  IC50: 6.44 µg/mL (≈ 11.9 µM)

## COc1cccc2c1C(=O)c1c(O)c3c(c(O)c1C2=O)C[C@@](O)(C(=O)CO)C[C@@H]3O[C@H]1C[C@H](N)[C@H](O)[C@H](C)O1 [DOXORUBICIN]
HeLa [1]
  IC50: 0.051 µg/mL (≈ 0.0938 µM)
MGC-803
  IC50: 0.51 µg/mL (≈ 0.938 µM)
[2]
  IC50 at 48 h: > 50 µg/mL
MDA-MB-231 [3]
  IC50: 0.37 µg/mL (≈ 0.681 µM)
HepG2
  IC50: 0.64 µg/mL (≈ 1.18 µM)
HCT-116 [4]
  IC50: 3.36 µg/mL (≈ 6.18 µM)
[5]
  IC50 at 48 h: 23.3 µg/mL (≈ 42.9 µM)

## COc1cc(=O)oc(/C=C/C=C/C=C/[C@]2(C)O[C@]3(C)[C@@H](C(C)=O)[C@@](C)(O[C@@H]3C)[C@H]2C(C)=O)c1C
HCT-116 [4]
  IC50: 5.77 µg/mL (≈ 12.3 µM)

## COc1cc(=O)oc(/C=C/C=C/C=C/[C@@]2(C)C[C@]3(C)O[C@H](C)[C@](C)(O2)[C@H]3C(=O)c2ccncc2)c1C
HCT-116 [4]
  IC50: 13.5 µg/mL (≈ 27.5 µM)

## COc1cc(=O)oc(/C=C/C=C/C=C/[C@@]2(C)C[C@]3(C)O[C@H](C)[C@](C)(O2)[C@H]3C(C)=O)c1C
HCT-116 [4]
  IC50: 7.04 µg/mL (≈ 16.4 µM)

## COc1cc(=O)oc(/C=C/C=C/C=C/[C@@]2(C)C[C@]3(C)O[C@H](C)[C@](C)(O2)[C@H]3C(=O)c2ccccn2)c1C
HCT-116 [4]
  IC50: 11.4 µg/mL (≈ 23.3 µM)

## COc1cc(=O)oc(/C=C/C=C/C=C/[C@@]2(C)C[C@]3(C)O[C@H](C)[C@](C)(O2)[C@H]3C(=O)c2cccs2)c1C
HeLa [1]
  IC50: 1.01 µg/mL (≈ 2.03 µM)
MGC-803
  IC50: 3.97 µg/mL (≈ 7.99 µM)
[2]
  IC50 at 48 h: > 50 µg/mL
MCF7 [12]
  inhibition: Active
HCT-116 [13]
  inhibition: Active
MDA-MB-231 [3]
  IC50: 2.87 µg/mL (≈ 5.78 µM)
HepG2
  IC50: 2.42 µg/mL (≈ 4.87 µM)
HCT-116 [4]
  IC50: 0.63 µg/mL (≈ 1.27 µM)
HeLa [17]
  inhibition: Active
[5]
  IC50 at 48 h: > 50 µg/mL
MCF7 [6]
  IC50: 0.62 µg/mL (≈ 1.25 µM)

## COc1ccc(C(=O)[C@@H]2[C@@]3(C)O[C@@](C)(/C=C/C=C/C=C/c4oc(=O)cc(OC)c4C)C[C@]2(C)O[C@@H]3C)cc1
HCT-116 [4]
  IC50: 4.97 µg/mL (≈ 9.55 µM)

## COc1cc(=O)oc(/C=C/C=C/C=C/[C@@]2(C)C[C@]3(C)O[C@H](C)[C@](C)(O2)[C@H]3C(=O)CCc2ccc(Cl)cc2)c1C
HCT-116 [4]
  IC50: 4.89 µg/mL (≈ 8.84 µM)

## COc1cc(=O)oc(/C=C/C=C/C=C/[C@]2(C)O[C@]3(C)[C@@H](C(=O)c4ccccc4)[C@@](C)(O[C@@H]3C)[C@H]2C(=O)c2ccccc2)c1C
HCT-116 [4]
  IC50: 28.8 µg/mL (≈ 48.4 µM)

## COc1cc(=O)oc(/C=C/C=C/C=C/[C@@]2(C)C[C@]3(C)O[C@H](C)[C@](C)(O2)[C@H]3C(=O)c2ccco2)c1C
HeLa [1]
  IC50: 1.48 µg/mL (≈ 3.08 µM)
MGC-803
  IC50: 5.79 µg/mL (≈ 12 µM)
[2]
  IC50 at 48 h: > 50 µg/mL
MDA-MB-231 [3]
  IC50: 4.46 µg/mL (≈ 9.28 µM)
HepG2
  IC50: 4.19 µg/mL (≈ 8.72 µM)
HCT-116 [4]
  IC50: 1.4 µg/mL (≈ 2.91 µM)
[5]
  IC50 at 48 h: > 50 µg/mL
MCF7 [6]
  IC50: 0.74 µg/mL (≈ 1.54 µM)

## COc1cc(=O)oc(/C=C/C=C/C=C/[C@@]2(C)C[C@]3(C)O[C@H](C)[C@](C)(O2)[C@H]3C(=O)c2cccnc2)c1C
HCT-116 [4]
  IC50: 12.5 µg/mL (≈ 25.4 µM)

## CCC[C@H]1[C@@]2(C)O[C@H](C)[C@]1(C)O[C@@](C)(/C=C/C=C/C=C/c1oc(=O)cc(OC)c1C)[C@@H]2CCC
HCT-116 [4]
  IC50: 4.29 µg/mL (≈ 9.12 µM)

## COc1cc(=O)oc(/C=C/C=C/C=C/[C@@]2(C)C[C@]3(C)O[C@H](C)[C@](C)(O2)[C@H]3C(=O)c2ccc(C#N)cc2)c1C
HCT-116 [4]
  IC50: 11.3 µg/mL (≈ 22 µM)

## COc1cc(=O)oc(/C=C/C=C/C=C/[C@@]2(C)C[C@]3(C)O[C@H](C)[C@](C)(O2)[C@H]3C(=O)C(C)(C)C)c1C
HCT-116 [4]
  IC50: 4.98 µg/mL (≈ 10.6 µM)

## COc1cc(=O)oc(/C=C/C=C/C=C/[C@]2(C)O[C@]3(C)[C@@H](O)[C@@](C)(O[C@@H]3C)[C@H]2O)c1C
[8]
  Tmax: 6 min
MDA-MB-231 [9]
  Activity: Active
[10]
  AUC(0-inf): 206 ng·h/mL
[11]
  MRT last: 19.8 min
MCF7 [12]
  inhibition: Active
HCT-116 [13]
  inhibition: Active
[14]
  MRT inf: 21 min
MDA-MB-231 [15]
  Activity: Active
HCT-116 [4]
  IC50: 14.9 µg/mL (≈ 35.6 µM)
[16]
  Vd: 2.5 L/kg
HeLa [17]
  inhibition: Active
[18]
  Cmax: 417 ng/mL
[19]
  clearance: 83.2 mL/min/kg
[20]
  half-life: 21 min
[21]
  AUC(0-t): 203 ng·h/mL
